Earlier results as cited in patent US10694745B2, “Method for controlling rust” (UPL LIMITED, priority 2013, dated 2020).

Legend:
[1] = test system: Phakopsora pachyrhizi; conditions: single fungicide
[2] = test system: soybean; conditions: in vivo

| SMILES | control of soybean rust [1] | phytotoxicity [2] |
| --- | --- | --- |
| CO/C=C(/C(=O)OC)c1ccccc1Oc1cc(Oc2ccccc2C#N)ncn1 [Azoxystrobin] | good control |  |
| c1ccc2[nH]c(-c3cscn3)nc2c1 [Thiabendazole] |  | phytotoxic |
| O=C(Nc1ccccc1-c1ccc(Cl)cc1)c1cccnc1Cl [Boscalid] | moderate control |  |
